Measured values taken from ChEMBL document CHEMBL1201862, “PubChem BioAssay data set” (2004).
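The compound was tested at five concentrations on cells cultured in 96-well plates, with a 48-hour exposure period. GI50: concentration for 50% inhibition of growth.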 Activity calls are given as the source filed them. Rule as the data show it: active = GI50 up to about 1.1 µM and inactive = higher.

Columns and labels:
Assay in all cases: growth of human tumour cells (NCI), 48 h
A498 = system: A498
ACHN = system: ACHN
CCRF-CEM = system: CCRF-CEM
EKVX = system: EKVX
HOP-92 = system: HOP-92
LOX IMVI = system: LOX IMVI
M14 = system: M14
MCF7 = system: MCF7
MDA-MB-435 = system: MDA-MB-435
NCI-H23 = system: NCI-H23
OVCAR-4 = system: OVCAR-4
SF-295 = system: SF-295
SK-MEL-2 = system: SK-MEL-2
SK-MEL-5 = system: SK-MEL-5
SN12C = system: SN12C
SNB-75 = system: SNB-75
T47D = system: T47D
TK-10 = system: TK-10
UACC-62 = system: UACC-62
UO-31 = system: UO-31

Row | Structure (SMILES) | GI50 (A498) | GI50 (ACHN) | GI50 (CCRF-CEM) | GI50 (EKVX) | GI50 (HOP-92) | GI50 (LOX IMVI) | GI50 (M14) | GI50 (MCF7) | GI50 (MDA-MB-435) | GI50 (NCI-H23) | GI50 (OVCAR-4) | GI50 (SF-295) | GI50 (SK-MEL-2) | GI50 (SK-MEL-5) | GI50 (SN12C) | GI50 (SNB-75) | GI50 (T47D) | GI50 (TK-10) | GI50 (UACC-62) | GI50 (UO-31)
1 | COc1cc(C2c3cc4c(cc3OC(C)(N3CCCC3)C2C)OCO4)cc(OC)c1OC (stereo not given) | 0.302 µM (active) | 0.815 µM (active) | 0.267 µM (active) | 0.43 µM (active) | 2.19 µM (inactive) | 0.452 µM (active) | 0.242 µM (active) | 0.457 µM (active) | 0.128 µM (active) | 0.883 µM (active) | 9.48 µM (inactive) | 0.223 µM (active) | 0.405 µM (active) | 0.247 µM (active) | 0.446 µM (active) | 0.269 µM (active) | 74.5 µM (inactive) | 0.524 µM (active) | 0.373 µM (active) | 1.26 µM (inactive)
2 | CCOC(=O)/C(=C\c1ccccc1)C(=O)CCN1CCOCC1 | 16.7 µM (inactive) | 5.38 µM (inactive) | 1.29 µM (inactive) | 15.6 µM (inactive) | 5.86 µM (inactive) | 2.8 µM (inactive) | 6.67 µM (inactive) | 5.2 µM (inactive) | 19 µM (inactive) | 8.85 µM (inactive) | 12.4 µM (inactive) | 19.2 µM (inactive) | 17.8 µM (inactive) | 12.6 µM (inactive) | 8.65 µM (inactive) | 16.4 µM (inactive) | 16.3 µM (inactive) | 6.5 µM (inactive) | 4.24 µM (inactive) | 16.9 µM (inactive)
3 | CC(C)CCCC(C)[C@H]1CC[C@H]2NCCCC[C@]12C (stereo not given in full) | 9.84 µM (inactive) | 2.07 µM (inactive) | 1.37 µM (inactive) | 2.28 µM (inactive) | 3.48 µM (inactive) | 1.85 µM (inactive) | 2.1 µM (inactive) | 2 µM (inactive) | 2.01 µM (inactive) | 8.69 µM (inactive) | 6.58 µM (inactive) | 2.33 µM (inactive) | 2.88 µM (inactive) | 1.6 µM (inactive) | 6.24 µM (inactive) | 6.03 µM (inactive) | 2.77 µM (inactive) | 4.28 µM (inactive) | 2.01 µM (inactive) | 7.36 µM (inactive)
4 | CCOC(=O)CC/C(=N/Nc1ccc(Cl)cc1[N+](=O)[O-])C(=O)OCC | 34.8 µM (inactive) | > 100 µM (inactive) | > 100 µM (inactive) | > 100 µM (inactive) | 11.4 µM (inactive) | > 100 µM (inactive) | > 100 µM (inactive) | > 100 µM (inactive) | > 100 µM (inactive) | > 100 µM (inactive) | > 100 µM (inactive) | > 100 µM (inactive) | > 100 µM (inactive) | > 100 µM (inactive) | > 100 µM (inactive) | 61.8 µM (inactive) | 93.3 µM (inactive) | > 100 µM (inactive) | > 100 µM (inactive) | > 100 µM (inactive)
5 | COC(=O)C(CCSC)NC(=O)CSc1nnc(COc2ccc(Cl)cc2)n1-c1ccccc1 (stereo not given) | 21.3 µM (inactive) | 18.1 µM (inactive) | 23.7 µM (inactive) | 27.6 µM (inactive) | 18.2 µM (inactive) | 13.8 µM (inactive) | 18.7 µM (inactive) | 21.1 µM (inactive) | 18.4 µM (inactive) | 17.8 µM (inactive) | 16.1 µM (inactive) | 17 µM (inactive) | 16 µM (inactive) | 18.5 µM (inactive) | 17.8 µM (inactive) | 16.7 µM (inactive) | 27.5 µM (inactive) | 19.1 µM (inactive) | 18.2 µM (inactive) | 3.94 µM (inactive)
6 | CCOP(=O)(OCC)c1c(C(=O)OC)cc(=O)[nH]c1-c1ccc(C)cc1 | 22 µM (inactive) | 3.17 µM (inactive) | 2.02 µM (inactive) | 3.73 µM (inactive) | 2.75 µM (inactive) | 17.7 µM (inactive) | 11.6 µM (inactive) | 13.4 µM (inactive) | 18.5 µM (inactive) | 16.9 µM (inactive) | 8.2 µM (inactive) | 19.8 µM (inactive) | 15.7 µM (inactive) | 13.3 µM (inactive) | 22.4 µM (inactive) | 12.8 µM (inactive) | 2.58 µM (inactive) | 14.4 µM (inactive) | 7.01 µM (inactive) | 4.05 µM (inactive)
7 | CC/C(N)=N\NC(=O)OC(C)(C)C | > 100 µM (inactive) | > 100 µM (inactive) | > 100 µM (inactive) | > 100 µM (inactive) | > 100 µM (inactive) | > 100 µM (inactive) | > 100 µM (inactive) | > 100 µM (inactive) | > 100 µM (inactive) | > 100 µM (inactive) | > 100 µM (inactive) | > 100 µM (inactive) | > 100 µM (inactive) | > 100 µM (inactive) | > 100 µM (inactive) | > 100 µM (inactive) | > 100 µM (inactive) | > 100 µM (inactive) | > 100 µM (inactive) | > 100 µM (inactive)
8 | COC(=O)Cc1ccc2c(c1)Sc1ccc(CC(=O)OC)cc1N2C | 40.6 µM (inactive) | 38 µM (inactive) | 22 µM (inactive) | 42 µM (inactive) | 24.6 µM (inactive) | 14.3 µM (inactive) | 30.3 µM (inactive) | 9.57 µM (inactive) | 6.4 µM (inactive) | 28.6 µM (inactive) | 28.3 µM (inactive) | 22.8 µM (inactive) | 51.4 µM (inactive) | 12.3 µM (inactive) | 33.7 µM (inactive) | > 47.2 µM (inactive) | 32.2 µM (inactive) | 58.3 µM (inactive) | 23.9 µM (inactive) | 16.8 µM (inactive)
9 | COc1cc(C2c3cc4c(cc3OC(NNc3ccccc3)C2C)OCO4)cc(OC)c1OC (stereo not given) | 2.22 µM (inactive) | 0.631 µM (active) | 0.885 µM (active) | 1.73 µM (inactive) | 6.43 µM (inactive) | 0.706 µM (active) | 0.869 µM (active) | 0.714 µM (active) | 0.305 µM (active) | 2.83 µM (inactive) | 4.94 µM (inactive) | 0.361 µM (active) | 1.23 µM (inactive) | 1.32 µM (inactive) | 2.99 µM (inactive) | 8.3 µM (inactive) | 2.43 µM (inactive) | 2.48 µM (inactive) | 0.544 µM (active) | 0.91 µM (active)
10 | CC(=O)NC(=N/N=C1/C(=O)Nc2ccc(C)cc21)NC(C)=O | > 100 µM (inactive) | > 100 µM (inactive) | > 100 µM (inactive) | > 100 µM (inactive) | > 100 µM (inactive) | > 100 µM (inactive) | > 100 µM (inactive) | > 100 µM (inactive) | > 100 µM (inactive) | > 100 µM (inactive) | > 100 µM (inactive) | 52.1 µM (inactive) | > 100 µM (inactive) | > 100 µM (inactive) | > 100 µM (inactive) | 31.6 µM (inactive) | > 100 µM (inactive) | > 100 µM (inactive) | > 100 µM (inactive) | 84.1 µM (inactive)
11 | Cc1cc(=O)oc2cc3oc(N(C)c4ccccc4)nc(=O)c3cc12 | > 100 µM (inactive) | > 100 µM (inactive) | > 100 µM (inactive) | > 100 µM (inactive) | 22.7 µM (inactive) | > 100 µM (inactive) | > 100 µM (inactive) | > 100 µM (inactive) | > 100 µM (inactive) | > 100 µM (inactive) | > 100 µM (inactive) | > 100 µM (inactive) | > 100 µM (inactive) | > 100 µM (inactive) | > 100 µM (inactive) | > 100 µM (inactive) | > 100 µM (inactive) | > 100 µM (inactive) | > 100 µM (inactive) | > 100 µM (inactive)
12 | CCN(CC)CCO/N=C1/C=C2CCC3C(CC[C@@]4(C)C3CC[C@]4(C)O)[C@@]2(C)CC1 (stereo not given in full) | 0.195 µM (active) | 5.87 µM (inactive) | 1.29 µM (inactive) | 6.21 µM (inactive) | 4.9 µM (inactive) | 4.1 µM (inactive) | 8.79 µM (inactive) | 3.95 µM (inactive) | 1.69 µM (inactive) | 6.75 µM (inactive) | 17.5 µM (inactive) | 2.33 µM (inactive) | 11.2 µM (inactive) | 12.5 µM (inactive) | 4.15 µM (inactive) | 2.89 µM (inactive) | 7.59 µM (inactive) | 15.2 µM (inactive) | 2.76 µM (inactive) | 5.41 µM (inactive)
13 | COc1ccc(C2c3cc4c(cc3OC3(OC)COC(=O)C23)OCO4)c(OC)c1 (stereo not given) | 39.5 µM (inactive) | 34.8 µM (inactive) | 4.32 µM (inactive) | 16.2 µM (inactive) | 26.5 µM (inactive) | 6.95 µM (inactive) | 3.73 µM (inactive) | 4.85 µM (inactive) | 1.71 µM (inactive) | 29.3 µM (inactive) | 19.1 µM (inactive) | 12.8 µM (inactive) | 12.6 µM (inactive) | 4.84 µM (inactive) | 15.6 µM (inactive) | 8.93 µM (inactive) | 29.4 µM (inactive) | 32.6 µM (inactive) | 5.73 µM (inactive) | 14.9 µM (inactive)
14 | COc1ccc(C(C)NNC(=O)c2cc[n+]([BH2-]C#N)cc2)cc1F (stereo not given) | > 100 µM (inactive) | > 100 µM (inactive) | > 100 µM (inactive) | > 100 µM (inactive) | > 100 µM (inactive) | > 100 µM (inactive) | > 100 µM (inactive) | > 100 µM (inactive) | > 100 µM (inactive) | 96.2 µM (inactive) | > 100 µM (inactive) | > 100 µM (inactive) | > 100 µM (inactive) | > 100 µM (inactive) | > 100 µM (inactive) | > 100 µM (inactive) | > 100 µM (inactive) | > 100 µM (inactive) | > 100 µM (inactive) | > 100 µM (inactive)
